# Calls of active or inactive are those of the source. The rule behind the calls is not given here.
# Assays:
# [1] = target: T1, A disintegrin and metalloproteinase with thrombospondin motifs 4 (Homo sapiens, UniProt O75173); experiment: Inhibition of aggrecanase1
# T1 sequence (O75173 whole entry): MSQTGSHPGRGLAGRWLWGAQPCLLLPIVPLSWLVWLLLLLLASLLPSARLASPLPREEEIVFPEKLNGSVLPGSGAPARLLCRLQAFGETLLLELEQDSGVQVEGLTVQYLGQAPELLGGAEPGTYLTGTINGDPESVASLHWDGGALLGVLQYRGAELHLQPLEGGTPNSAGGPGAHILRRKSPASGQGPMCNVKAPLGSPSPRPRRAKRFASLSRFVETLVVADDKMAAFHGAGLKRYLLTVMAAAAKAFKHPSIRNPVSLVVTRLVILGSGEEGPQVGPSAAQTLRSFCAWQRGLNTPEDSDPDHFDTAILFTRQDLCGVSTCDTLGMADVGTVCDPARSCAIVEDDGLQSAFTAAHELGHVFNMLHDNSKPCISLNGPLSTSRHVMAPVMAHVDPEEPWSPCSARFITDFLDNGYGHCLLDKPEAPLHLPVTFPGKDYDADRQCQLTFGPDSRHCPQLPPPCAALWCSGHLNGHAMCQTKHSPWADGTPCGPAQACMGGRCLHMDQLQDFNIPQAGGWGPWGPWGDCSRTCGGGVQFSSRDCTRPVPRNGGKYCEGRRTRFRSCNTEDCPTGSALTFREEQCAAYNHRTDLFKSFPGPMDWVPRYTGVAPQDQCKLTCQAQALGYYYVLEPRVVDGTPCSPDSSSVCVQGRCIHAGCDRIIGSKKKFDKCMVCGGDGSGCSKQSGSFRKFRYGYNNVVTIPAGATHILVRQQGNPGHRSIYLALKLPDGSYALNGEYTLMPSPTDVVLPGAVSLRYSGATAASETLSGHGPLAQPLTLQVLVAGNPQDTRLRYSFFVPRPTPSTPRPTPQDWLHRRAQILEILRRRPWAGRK
# [2] = Half life in Sprague-Dawley rat at 2 mg/kg, iv or 25 mg/kg, po; format: ADME, organism-based; conditions: in vivo
# [3] = Cmax in Sprague-Dawley rat at 2 mg/kg, iv or 25 mg/kg, po; format: ADME, organism-based; conditions: in vivo
# Interstitial collagenase = target: T2, Interstitial collagenase (Homo sapiens, UniProt P03956); experiment: Inhibition of MMP1
# T2 sequence (P03956 whole entry): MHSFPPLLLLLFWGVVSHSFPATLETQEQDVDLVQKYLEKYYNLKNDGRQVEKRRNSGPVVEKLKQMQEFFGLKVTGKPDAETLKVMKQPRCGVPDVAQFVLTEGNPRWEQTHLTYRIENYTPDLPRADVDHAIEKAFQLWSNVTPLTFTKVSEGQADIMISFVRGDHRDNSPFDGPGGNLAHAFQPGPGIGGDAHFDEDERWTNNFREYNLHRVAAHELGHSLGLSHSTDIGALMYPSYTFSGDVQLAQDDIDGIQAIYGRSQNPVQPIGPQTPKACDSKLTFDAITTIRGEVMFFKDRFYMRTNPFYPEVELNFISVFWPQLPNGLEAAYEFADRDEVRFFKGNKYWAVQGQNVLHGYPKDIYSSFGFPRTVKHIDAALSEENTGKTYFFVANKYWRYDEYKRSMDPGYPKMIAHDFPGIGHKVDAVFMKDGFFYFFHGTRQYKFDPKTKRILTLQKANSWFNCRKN
# [4] = target: 72 kDa type IV collagenase (Homo sapiens, UniProt P08253); experiment: Inhibition of MMP2
# 72 kDa type IV collagenase, sequence (P08253 whole entry): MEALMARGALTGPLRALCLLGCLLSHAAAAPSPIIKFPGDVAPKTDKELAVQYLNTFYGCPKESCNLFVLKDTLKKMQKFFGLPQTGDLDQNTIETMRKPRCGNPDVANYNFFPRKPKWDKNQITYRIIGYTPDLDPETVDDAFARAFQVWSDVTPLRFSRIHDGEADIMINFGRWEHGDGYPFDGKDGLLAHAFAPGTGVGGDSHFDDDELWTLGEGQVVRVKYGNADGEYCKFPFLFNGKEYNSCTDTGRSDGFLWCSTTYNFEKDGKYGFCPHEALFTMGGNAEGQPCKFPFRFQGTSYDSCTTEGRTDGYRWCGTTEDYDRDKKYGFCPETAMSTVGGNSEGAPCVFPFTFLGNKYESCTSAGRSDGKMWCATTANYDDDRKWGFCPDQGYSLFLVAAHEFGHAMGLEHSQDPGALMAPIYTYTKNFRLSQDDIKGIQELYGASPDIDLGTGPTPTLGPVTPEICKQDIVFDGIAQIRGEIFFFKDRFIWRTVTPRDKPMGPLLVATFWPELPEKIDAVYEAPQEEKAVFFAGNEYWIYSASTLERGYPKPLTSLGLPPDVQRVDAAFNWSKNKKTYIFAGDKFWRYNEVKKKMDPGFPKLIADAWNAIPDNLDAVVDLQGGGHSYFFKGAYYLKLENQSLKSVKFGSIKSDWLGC
# Collagenase 3 = Collagenase 3 (Homo sapiens, UniProt P45452); experiment: Inhibition of MMP13
# [5] = target: Matrix metalloproteinase-14 (Homo sapiens, UniProt P50281); experiment: Inhibition of MMP14
# [6] = target: T3, A disintegrin and metalloproteinase with thrombospondin motifs 4 (Bos taurus) (UniProt Q9TT93); experiment: Inhibition of IL1-induced aggrecanase activity in bovine cartilage explant assessed as release of degraded extracellular matrix aggrecan
# T3 sequence (whole entry): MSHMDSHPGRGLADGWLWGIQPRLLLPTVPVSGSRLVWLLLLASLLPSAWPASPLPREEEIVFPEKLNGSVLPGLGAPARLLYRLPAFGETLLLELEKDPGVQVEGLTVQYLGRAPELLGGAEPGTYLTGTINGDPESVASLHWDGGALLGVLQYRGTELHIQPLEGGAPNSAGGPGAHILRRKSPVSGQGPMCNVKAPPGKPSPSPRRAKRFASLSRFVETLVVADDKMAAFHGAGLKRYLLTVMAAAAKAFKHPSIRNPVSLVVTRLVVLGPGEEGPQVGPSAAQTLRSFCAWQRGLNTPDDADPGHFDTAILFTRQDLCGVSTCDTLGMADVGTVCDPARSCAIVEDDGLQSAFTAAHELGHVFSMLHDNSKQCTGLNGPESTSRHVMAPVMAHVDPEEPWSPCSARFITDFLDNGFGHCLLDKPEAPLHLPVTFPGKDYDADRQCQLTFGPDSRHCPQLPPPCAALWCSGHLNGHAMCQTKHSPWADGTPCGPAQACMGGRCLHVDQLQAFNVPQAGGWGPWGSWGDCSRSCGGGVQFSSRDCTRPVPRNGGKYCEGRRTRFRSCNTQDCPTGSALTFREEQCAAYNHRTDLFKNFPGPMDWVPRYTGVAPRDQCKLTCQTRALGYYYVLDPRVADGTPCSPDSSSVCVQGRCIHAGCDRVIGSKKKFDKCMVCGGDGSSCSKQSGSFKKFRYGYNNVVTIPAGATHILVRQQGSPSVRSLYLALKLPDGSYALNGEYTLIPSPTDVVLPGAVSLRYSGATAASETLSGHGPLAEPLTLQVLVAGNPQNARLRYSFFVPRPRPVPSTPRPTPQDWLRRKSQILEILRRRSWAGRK
# [7] = target: T3, A disintegrin and metalloproteinase with thrombospondin motifs 4 (Bos taurus); experiment: Inhibition of IL1-induced aggrecanase activity in bovine cartilage explant assessed as inhibition of proteoglycan degradation at 10 ug/ml after 3 days
# [8] = Clearance in Sprague-Dawley rat at 2 mg/kg, iv or 25 mg/kg, po; format: ADME, organism-based; conditions: in vivo
# [9] = Oral bioavailability in Sprague-Dawley rat at 25 mg/kg; format: ADME, organism-based; conditions: in vivo
# [10] = target: T4, A disintegrin and metalloproteinase with thrombospondin motifs 5 (Homo sapiens, UniProt Q9UNA0); experiment: Inhibition of aggrecanase2
# T4 sequence (Q9UNA0 whole entry): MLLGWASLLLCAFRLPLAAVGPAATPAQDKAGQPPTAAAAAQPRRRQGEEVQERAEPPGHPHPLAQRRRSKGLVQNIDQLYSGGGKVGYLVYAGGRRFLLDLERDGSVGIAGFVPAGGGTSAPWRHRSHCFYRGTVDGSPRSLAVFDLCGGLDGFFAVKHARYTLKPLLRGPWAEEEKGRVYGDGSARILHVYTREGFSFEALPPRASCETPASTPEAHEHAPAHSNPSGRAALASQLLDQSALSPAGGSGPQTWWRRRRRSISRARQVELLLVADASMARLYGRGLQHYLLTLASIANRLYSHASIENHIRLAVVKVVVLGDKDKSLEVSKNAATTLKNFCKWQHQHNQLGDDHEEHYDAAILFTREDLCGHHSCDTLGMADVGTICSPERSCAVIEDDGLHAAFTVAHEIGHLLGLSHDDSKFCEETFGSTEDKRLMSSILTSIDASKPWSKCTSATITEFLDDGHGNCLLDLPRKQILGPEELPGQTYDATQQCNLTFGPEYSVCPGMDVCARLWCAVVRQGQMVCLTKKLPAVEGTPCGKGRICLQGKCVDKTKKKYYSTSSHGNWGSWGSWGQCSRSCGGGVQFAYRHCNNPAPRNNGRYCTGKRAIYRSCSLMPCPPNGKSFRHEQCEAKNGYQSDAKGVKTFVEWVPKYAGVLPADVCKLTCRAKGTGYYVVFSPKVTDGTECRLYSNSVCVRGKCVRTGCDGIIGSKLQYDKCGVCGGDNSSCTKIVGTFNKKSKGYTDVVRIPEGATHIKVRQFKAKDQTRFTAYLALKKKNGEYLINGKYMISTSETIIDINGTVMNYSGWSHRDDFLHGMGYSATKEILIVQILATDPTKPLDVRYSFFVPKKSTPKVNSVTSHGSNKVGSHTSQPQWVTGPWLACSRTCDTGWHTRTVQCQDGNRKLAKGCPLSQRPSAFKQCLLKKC
# [11] = target: T5, A disintegrin and metalloproteinase with thrombospondin motifs 5 (Homo sapiens) (UniProt Q9UNA0); experiment: Inhibition of aggrecanase2 at 2.5 uM
# T5 sequence (whole entry): T4 sequence (Q9UNA0 whole entry)
smiles,measurement,setting,value
Cc1cccc(Oc2ccc(OCc3ccc(-c4ccc(S(=O)(=O)N[C@@H](C(=O)O)C(C)C)cc4)cc3)cc2)n1,IC50,[1],730 nM
CC(=O)c1ccc(OCc2ccc(-c3ccc(S(=O)(=O)N[C@@H](C(=O)O)C(C)C)cc3)cc2)cc1,IC50,[1],430 nM
CC(C)[C@@H](NS(=O)(=O)c1ccc(-c2ccc(COc3ccc(C(=O)C4CCCCC4)cc3)cc2)cc1)C(=O)O,half-life,[2],3.07 h
same,Cmax,[3],694 ng/mL
same,IC50,[1],90 nM
same,IC50,Interstitial collagenase,> 100000 nM
same,IC50,[4],5.3 nM
same,IC50,Collagenase 3,15 nM
same,IC50,[5],1640 nM
same,Activity,[6],Active
same,inhibition,[7],69%
same,clearance,[8],6.9 mL/min/kg
same,bioavailability,[9],13%
CC(C)[C@@H](NS(=O)(=O)c1ccc(-c2ccc(COc3ccc(NC(=O)OC(C)(C)C)cc3)cc2)cc1)C(=O)O,IC50,[1],590 nM
CC(C)[C@@H](NS(=O)(=O)c1ccc(-c2ccc(COc3ccc(C(=O)c4ccccc4)cc3)cc2)cc1)C(=O)O,IC50,[1],230 nM
Cc1c(CC(=O)Oc2ccc(-c3ccc(S(=O)(=O)N[C@@H](C(=O)O)C(C)C)cc3)cc2)oc2ccccc12,IC50,[1],700 nM
CC(C)[C@@H](NS(=O)(=O)c1ccc(-c2ccc(COc3ccc4c(c3)CCCC4=O)cc2)cc1C(F)(F)F)C(=O)O,IC50,[1],3200 nM
CC(C)[C@@H](NS(=O)(=O)c1ccc(-c2ccc(COc3ccc4ccccc4n3)cc2)cc1)C(=O)O,IC50,[1],400 nM
CC(C)[C@@H](NS(=O)(=O)c1ccc(-c2ccc(COc3ccc4c(c3)CCCC4=O)cc2)cc1)C(=O)O,IC50,[10],6600 nM
same,IC50,[1],230 nM
same,IC50,Interstitial collagenase,> 100000 nM
same,IC50,[4],6.3 nM
same,IC50,Collagenase 3,2.2 nM
same,IC50,[5],1300 nM
same,Activity,[6],Active
same,inhibition,[7],53%
CC(C)C(=O)c1ccc(OCc2ccc(-c3ccc(S(=O)(=O)N[C@@H](C(=O)O)C(C)C)cc3)cc2)cc1,IC50,Interstitial collagenase,> 100000 nM
same,IC50,[4],1.3 nM
same,IC50,Collagenase 3,1.1 nM
same,IC50,[5],915 nM
same,Activity,[6],Active
same,Activity,[7],Active
CC(C)[C@@H](NS(=O)(=O)c1ccc(-c2ccc(COc3cc4cccc(C(F)(F)F)c4nc3C(F)(F)F)cc2)cc1)C(=O)O,IC50,[1],200 nM
CC(C)[C@@H](NS(=O)(=O)c1ccc(-c2ccc(COc3ccc(C(=O)N4CCOCC4)cc3)cc2)cc1)C(=O)O,IC50,[1],5200 nM
CC(C)[C@@H](NS(=O)(=O)c1ccc(-c2ccc(COc3ccc4c(c3)CCCC4=O)cc2)cc1F)C(=O)O,IC50,[1],180 nM
CC(C)[C@@H](NS(=O)(=O)c1ccc(-c2ccc(COc3ccc(CN4CCOCC4)cc3)cc2)cc1)C(=O)O,IC50,[1],6000 nM
CC(C)[C@@H](NS(=O)(=O)c1ccc(-c2ccc(COc3ccc(C(=O)c4ccc(F)cc4)cc3)cc2)cc1)C(=O)O,IC50,[1],80 nM
same,inhibition,[11],55%
same,IC50,Interstitial collagenase,> 100000 nM
same,IC50,[4],3.6 nM
same,IC50,Collagenase 3,6.3 nM
same,IC50,[5],220 nM
same,Activity,[6],Active
same,inhibition,[7],71%
CC(C)[C@@H](NS(=O)(=O)c1ccc(-c2ccc(COc3cccc(N(C)C)c3)cc2)cc1)C(=O)O,IC50,[1],4900 nM
CC(C)[C@@H](NS(=O)(=O)c1ccc(-c2ccc(COc3ccc4c(c3)CCCC4=O)cc2)cc1OC(F)(F)F)C(=O)O,IC50,[1],20000 nM

# From ChEMBL document CHEMBL1138597, “Synthesis and biological evaluation of ((4-keto)-phenoxy)methyl biphenyl-4-sulfonamides: a class of potent aggrecanase-1 inhibitors” (Bioorg Med Chem Lett, 2009)
